Results from patent publication US20230041563A1, “N-(1,3,4-OXADIAZOL-2-YL)ARYLCARBOXAMIDES OR SALTS THEREOF, PREPARATION METHODS, HERBICIDAL COMPOSITIONS AND USES THEREOF” (priority 2018, published 2023).

How the values were obtained:
[1] = system: Abutilon theophrasti; assay: Weeding effect in post-emergence stage (greenhouse pot spray); format: in vivo
Procedure, shortened: (§1)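 Read-out: fresh-weight growth control rate scored 3 weeks after spraying, mean of three replicates. Plants treated at 2-3 leaf stage by spray tower, doses 500-15 g a.i./ha (500, 250, 125, 60, 15).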

[2] = system: Digitaria sanguinalis; assay: as above; format: in vivo
Procedure, shortened: as §1

[3] = system: Echinochloa crusgalli; assay: as above; format: in vivo
Procedure, shortened: as §1

[4] = system: Setaria viridis; assay: as above; format: in vivo; conditions: Table 3, dose 60 g a.i./ha
Procedure, shortened: as §1

[5] = system: Amaranthus retroflexus; assay: as above; format: in vivo
Procedure, shortened: as §1

[6] = system: Stellaria media; assay: as above; format: in vivo
Procedure, shortened: as §1

[7] = system: Indica rice (Huanghuazhan); assay: Safety test of control experiments on rice; format: in vivo; conditions: Dose 250 g a.i./ha
Source text: (§2) The activity level criteria for plant damage (i.e., growth control rate) are as follows: Comparative Experiments: [table]

[8] = system: Japonica rice (Huaidao No. 5); assay: Safety test of control experiments on rice; format: in vivo; conditions: Dose 250 g a.i./ha
Source text: as §2

[9] = system: rice and Echinochloa crusgali; assay: Herbicide selection index between rice and Echinochloa crusgali; format: in vivo; conditions: average dose causing 10% phytotoxicity to rice divided by average dose causing 90% control efficiency to Echinochloa crusgali
[10] = system: Abutilon theophrasti; assay: Post-emergence control experiment of R configuration compound activity (weeds 4-5 leaf stage, 25 days); format: in vivo; conditions: Abutilon theophrasti, post-emergence; read-out: Ablation theophrasti (30 g a.i./ha) inhibition rate
Procedure: (§3) Experiment on weeding effect in post-emergence stage: after 3-4 weeks of sowing, the test plants were treated in the 1.5-2 leaf stage of the directly sowed rice Longyang 16, and the 4-5 leaf stage of weeds. After the application of the compounds of the present invention, the plants were cultured for 25 days in the greenhouse, and then the experimental results of the weeding were counted.

[11] = system: Digitaria sanguinalis; assay: as above; format: in vivo; conditions: Digitaria sanguinalis, post-emergence; read-out: Digitaria sanguinalis (30 g a.i./ha) inhibition rate
Procedure: as §3

[12] = system: Green Setaria viridis; assay: as above; format: in vivo; conditions: Setaria viridis, post-emergence
Procedure: as §3

[13] = system: Leptochloa chinensis; assay: as above; format: in vivo; conditions: Dinebra chinensis, post-emergence
Procedure: as §3

[14] = system: Rice (Longyang 16); assay: Post-emergence control experiment of R configuration compound activity (directly sowed rice 1.5-2 leaf stage, 25 days); format: in vivo
Procedure: as §3
Longyang 16 is a representative and important long-grain fragrant rice in Northeast China. Long-grain fragrant rice is more sensitive to herbicides, especially to HPPD herbicides such as Mesotrione, Benzobicylon and the like, which are prone to causing phytotoxicity.

[15] = system: Echinochloa crusgali; assay: Transplanted rice safety evaluation and weed control effect evaluation in rice field; format: in vivo; conditions: Table 7, dose 125 g a.i./ha, 14 days after treatment
Procedure, shortened: (§4)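 Paddy-soil pots, seeds sown and flooded (0.5-1 cm, then 3-4 cm water); Sagittaria grown from tubers. WP or SC dilutions dripped on at 0.5-leaf stage (Sagittaria at primary leaf). Visual 0-5 scoring of weeds at 14 days, rice at 21 days.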

[16] = system: Monochoria vaginalis; assay: as above; format: in vivo; conditions: Table 7, dose 125 g a.i./ha, 14 days after treatment
Procedure, shortened: as §4

[17] = system: Scirpus juncoides; assay: as above; format: in vivo; conditions: Table 7, dose 125 g a.i./ha, 14 days after treatment
Procedure, shortened: as §4

[18] = system: Rice; assay: as above; format: in vivo, rice (japonica rice/Indica rice); conditions: Table 7, dose 125 g a.i./ha, 21 days after treatment
Procedure, shortened: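 Japonica and Indica rice at 3-leaf stage transplanted into flooded paddy soil (3-4 cm water). Compound applied 5 days after transplanting. Weeds scored visually on 0-5 scale at 14 days; rice injury at 21 days.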

[19] = system: gramineous weed (Echinochloa crusgali, Leptochloa chinensis or Digitaria sanguinalis); assay: Post-emergence activity on gramineous weed, comparison between compounds; format: in vivo; conditions: at low doses; versus Compound 1-2
Source text: Experiment on weeding effect in post-emergence stage: monocotyledonous and dicotyledonous weed seeds (Descurainia sophia, Capsella bursa-pastoris, Abutilon theophrasti, Galium aparine, Stellaria media, Lithospermum arvense, rorippa indica, Alopecurus aequalis, Beckmannia syzigachne, Sclerochloa dura, Phleum paniculatum, Bromus japonicus, Aegilops tauschii, Phalaris arundinacea, Amaranthus retroflexus, Chenopodiaceae, Commelina communis, Sonchus arvensis, convolvulus arvensis, Cirsium setosum, Solanum nigrum, Acalypha australis, Digitaria sanguinalis, Echinochloa crusgalli, Setaria viridis, Setaria glauca, Leptochloa chinensis, Monochoria vaginalis, Sagittaria trifolia, Scirpus juncoides, Cyperus rotundus, Cyperus iria, Cyperus difformis, Fimbristylis, Portulaca oleracea, Xanthium sibiricum, Pharbitis nil) and major crop seeds (wheat, corn, rice, soybean, cotton, oilseed rape, millet, sorghum, potato, sesame, ricinus) were placed in plastic pots filled with soil, then covered with 0.5-2 cm of soil, allowed to grow in a good greenhouse environment. After 2 weeks of sowing, the test plants were treated in the 2 to 3 leaf stage. […] After the application, the plants were cultured for 3 weeks in the greenhouse, and then the experimental results of the weeding were counted. […]

CCC[S+]([O-])c1c(C(F)(F)F)ccc(C(=O)Nc2nnc(C)o2)c1F (stereo not drawn) [Compound 1-8]
Abutilion theophrasti (activity level) ([1]; Table 2, dose 60 g a.i./ha): 5 (Level 5: growth control rate is above 85%)
Abutilion theophrasti (activity level) ([1]; Table 2, dose 125 g a.i./ha): 5 (Level 5: growth control rate is above 85%)
Abutilon theophrasti (activity level) ([1]; Table 3, dose 60 g a.i./ha): 5 (Level 5: growth control rate is above 85%)
Digitaria sanguinalis (activity level) ([2]; Table 2, dose 60 g a.i./ha): 5 (Level 5: growth control rate is above 85%)
Digitaria sanguinalis (activity level) ([2]; Table 2, dose 125 g a.i./ha): 5 (Level 5: growth control rate is above 85%)
Digitaria sanguinahs (activity level) ([2]; Table 3, dose 60 g a.i./ha): 5 (Level 5: growth control rate is above 85%)
Echinochloa crusgah (activity level) ([3]; Table 2, dose 60 g a.i./ha): 5 (Level 5: growth control rate is above 85%)
Echinochloa crusgah (activity level) ([3]; Table 2, dose 125 g a.i./ha): 5 (Level 5: growth control rate is above 85%)
Echinochloa crusgali (activity level) ([3]; Table 3, dose 60 g a.i./ha): 5 (Level 5: growth control rate is above 85%)
Setaria viridis (activity level) [4]: 5 (Level 5: growth control rate is above 85%)
Amaranthus retroflexus (activity level) ([5]; Table 2, dose 60 g a.i./ha): 5 (Level 5: growth control rate is above 85%)
Amaranthus retroflexus (activity level) ([5]; Table 2, dose 125 g a.i./ha): 5 (Level 5: growth control rate is above 85%)
Stellaria media (activity level) ([6]; Table 2, dose 60 g a.i./ha): 5 (Level 5: growth control rate is above 85%)
Stellaria media (activity level) ([6]; Table 2, dose 125 g a.i./ha): 5 (Level 5: growth control rate is above 85%)
Indica rice (Huanghuazhan) (plant damage level) [7]: 0 (Level 0: growth control rate is less than 5%)
Japonica rice (Huaidao No. 5) (plant damage level) [8]: 0 (Level 0: growth control rate is less than 5%)
Selection index between rice and Echinochloa crusgali [9]: >5
inhibition at 30 g/ha [10]: 90%
inhibition at 30 g/ha [11]: 80%
inhibition at 30 g/ha ([12]; read-out: Green Setaria viridis (30 g a.i./ha) inhibition rate): 10%
inhibition at 60 g/ha ([12]; read-out: Green Setaria viridis (60 g a.i./ha) inhibition rate): 90%
inhibition at 60 g/ha ([13]; read-out: Leptochloa chinensis (60 g a.i./ha) inhibition rate): 30%
inhibition at 125 g/ha ([13]; read-out: Leptochloa chinensis (125 g a.i./ha) inhibition rate): 80%
Rice (Longyang 16) (250 g a.i./ha) inhibition rate ([14]; 250 g a.i./ha): 5%
Rice (Longyang 16) (500 g a.i./ha) inhibition rate ([14]; 500 g a.i./ha): 15%
Echinochloa crusgali (activity level) [15]: 5 (Level 5: growth control rate is above 85%)
Monochoria vaginalis (activity level) [16]: 5 (Level 5: growth control rate is above 85%)
Scirpus juncoides (activity level) [17]: 5 (Level 5: growth control rate is above 85%)
Rice (safety level) [18]: 0 (Level 0: growth control rate is less than 5%)
activity on the gramineous weed relative to Compound 1-2 [19]: much more higher
